# Test results from patent US20020137929A1, “1 - (3-heterocyclylphenyl) isothiourea, -isourea, -guanidine and -amidine herbicidal agents” (Intellectual Property Department, BASF Aktiengesellschaft, priority 1998, published 2002).
# Tests used:
# ABUTH (Velvetleaf) [1] = experiment: Postemergence herbicidal evaluation; format: in vivo, Abutilon theophrasti; conditions: postemergence
# Outline: (§1)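 Rate range approx. 0.0156–0.500 kg/ha. Foliar application at 40 psi to ~2-week seedlings; surfactant 0.5% TWEEN 20 in 50/50 acetone/water. Evaluation 4–5 wk post-treatment by 0–9 visual injury score, means of replicate tests.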
# [2] = test system: CHEAL (Lambsquarters, Common); experiment: Postemergence herbicidal evaluation; format: in vivo, Chenopodium album; conditions: postemergence
# Outline: as §1
# ECHCG (Barnyardgrass) = experiment: Postemergence herbicidal evaluation; format: in vivo, Echinochloa crus-galli; conditions: postemergence
# Outline: as §1
# [3] = test system: GLXMAW (Soybean, Williams); experiment: Postemergence herbicidal evaluation; format: in vivo, Glycine max, (L.) Merr. cv Williams; conditions: postemergence
# Outline: as §1
# ABUTH (Velvetleaf) [4] = experiment: Preemergence herbicidal evaluation; format: in vivo, Abutilon theophrasti; conditions: rated 4-5 weeks after treatment
# Outline: (§2)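 Scores use a 0–9 visual scale covering stand, vigor, malformation, size and chlorosis relative to controls, rated four to five weeks after treatment. Before emergence, soil-planted seeds were sprayed with compound in aqueous acetone at roughly 0.0156–0.500 kg/ha and held in the greenhouse.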
# [5] = test system: IPOHE (Morningglory, Ivyleaf); experiment: Preemergence herbicidal evaluation; format: in vivo, Ipomoea hederacea; conditions: rated 4-5 weeks after treatment
# Outline: as §2
# [6] = test system: GLXMAW (Soybean, Williams); experiment: Preemergence herbicidal evaluation; format: in vivo, Glycine max, (L.) Merr. cv Williams; conditions: rated 4-5 weeks after treatment
# Outline: as §2
# ORYSAT (Rice, Tebonnet) [7] = experiment: Preemergence herbicidal evaluation; format: in vivo, Oryza sativa, (L.) Tebonnet; conditions: rated 4-5 weeks after treatment
# Outline: as §2
# ZEAMX (Corn, Field) = experiment: Preemergence herbicidal evaluation; format: in vivo, Zea mays; conditions: rated 4-5 weeks after treatment
# Outline: as §2
# CYPIR (Rice Flatsedge) = experiment: Preemergence weed control under flooded paddy conditions; format: in vivo, Cyperus iria; conditions: rated 3-4 weeks after treatment
# Outline: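 Herbicidal effect is scored visually on a 0-9 scale against an untreated control, three to four weeks after compounds are pipetted into the flood water (1.5 to 3 cm deep) over seeds planted in silt loam at 0.5 cm depth. Rates: about 0.0313 to 0.500 kg/ha.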
# CYPSE (Flatsedge) = experiment: as above; format: in vivo, Cyperus serotinus; conditions: rated 3-4 weeks after treatment
# Outline: (§3)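 Visual injury scored 0-9 against control three to four weeks post-treatment, greenhouse-grown. Application: acetone/water (50/50) solutions dosed directly into flood water (1.5-3 cm over silt loam, planted top 0.5 cm), roughly 0.0313 to 0.500 kg/ha active ingredient.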
# MOOVA (Monochoria) = experiment: as above; format: in vivo, Monochoria vaginalis; conditions: rated 3-4 weeks after treatment
# Outline: as §3
# ORYSAT (Rice, Tebonnet) [8] = experiment: Rice tolerance to post-transplant applications, flooded paddy conditions (Table III); format: in vivo, Oryza sativa, (L.) Tebonnet; conditions: in vivo
# Outline: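 Injury scored 0-9 by eye against untreated control, judging stand, vigor, malformation, size and chlorosis, three to four weeks after treatment. Compound in 50/50 aqueous/acetone, about 0.0313 to 0.500 kg/ha, was applied to paddy water (1.5 to 3 cm depth) three days after transplanting paired ten-day-old Tebonnet rice seedlings.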
compound,measurement,setting,value
"CCOC(=O)CN1C(=O)C(Cc2ccccc2OCC(=O)O)S/C1=N/c1cc(-n2c(=O)cc(C(F)(F)F)n(C)c2=O)c(F)cc1Cl (centres unmarked) [Compound 113, 5-[o-(Carboxymethoxy)benzyl]-2-{{2-chloro-5-[3,6-dihydro-3-methyl-2,6-dioxo-4-(trifluoromethyl)-1(2H)-pyrimidinyl]-4-fluorophenyl}imino}-4-oxo-3-thiazolidineacetic acid, 3-ethyl ester]",Herbicidal rating ABUTH,ABUTH (Velvetleaf) [1]; rate 0.0158 kg/ha,9.0
same,Herbicidal rating ABUTH,ABUTH (Velvetleaf) [1]; rate 0.0315 kg/ha,9.0
same,Herbicidal rating ABUTH,ABUTH (Velvetleaf) [1]; rate 0.0630 kg/ha,9.0
same,Herbicidal rating CHEAL,[2]; rate 0.0158 kg/ha,5.0
same,Herbicidal rating CHEAL,[2]; rate 0.0315 kg/ha,4.0
same,Herbicidal rating CHEAL,[2]; rate 0.0630 kg/ha,7.0
same,Herbicidal rating ECHCG,ECHCG (Barnyardgrass); rate 0.0158 kg/ha,0.0
same,Herbicidal rating ECHCG,ECHCG (Barnyardgrass); rate 0.0315 kg/ha,1.0
same,Herbicidal rating ECHCG,ECHCG (Barnyardgrass); rate 0.0630 kg/ha,1.0
same,Herbicidal rating GLXMAW,[3]; rate 0.0158 kg/ha,4.5
same,Herbicidal rating GLXMAW,[3]; rate 0.0315 kg/ha,5.5
same,Herbicidal rating GLXMAW,[3]; rate 0.0630 kg/ha,5.5
same,Preemergence herbicidal rating ABUTH,ABUTH (Velvetleaf) [4]; rate 0.0156 kg/ha,0.0
same,Preemergence herbicidal rating ABUTH,ABUTH (Velvetleaf) [4]; rate 0.0313 kg/ha,1.0
same,Preemergence herbicidal rating ABUTH,ABUTH (Velvetleaf) [4]; rate 0.0625 kg/ha,1.0
same,Preemergence herbicidal rating ABUTH,ABUTH (Velvetleaf) [4]; rate 0.1250 kg/ha,9.0
same,Preemergence herbicidal rating ABUTH,ABUTH (Velvetleaf) [4]; rate 0.2500 kg/ha,9.0
same,Preemergence herbicidal rating IPOHE,[5]; rate 0.0156 kg/ha,0.0
same,Preemergence herbicidal rating IPOHE,[5]; rate 0.0313 kg/ha,0.0
same,Preemergence herbicidal rating IPOHE,[5]; rate 0.0625 kg/ha,0.0
same,Preemergence herbicidal rating IPOHE,[5]; rate 0.1250 kg/ha,0.0
same,Preemergence herbicidal rating IPOHE,[5]; rate 0.2500 kg/ha,1.0
same,Preemergence herbicidal rating GLXMAW,[6]; rate 0.0156 kg/ha,0.0
same,Preemergence herbicidal rating GLXMAW,[6]; rate 0.0313 kg/ha,1.0
same,Preemergence herbicidal rating GLXMAW,[6]; rate 0.0625 kg/ha,0.0
same,Preemergence herbicidal rating GLXMAW,[6]; rate 0.1250 kg/ha,0.0
same,Preemergence herbicidal rating GLXMAW,[6]; rate 0.2500 kg/ha,2.0
same,Preemergence herbicidal rating ORYSAT,"ORYSAT (Rice, Tebonnet) [7]; rate 0.0156 kg/ha",0.0
same,Preemergence herbicidal rating ORYSAT,"ORYSAT (Rice, Tebonnet) [7]; rate 0.0313 kg/ha",0.0
same,Preemergence herbicidal rating ORYSAT,"ORYSAT (Rice, Tebonnet) [7]; rate 0.0625 kg/ha",0.0
same,Preemergence herbicidal rating ORYSAT,"ORYSAT (Rice, Tebonnet) [7]; rate 0.1250 kg/ha",0.0
same,Preemergence herbicidal rating ORYSAT,"ORYSAT (Rice, Tebonnet) [7]; rate 0.2500 kg/ha",0.0
same,Preemergence herbicidal rating ZEAMX,"ZEAMX (Corn, Field); rate 0.0156 kg/ha",0.0
same,Preemergence herbicidal rating ZEAMX,"ZEAMX (Corn, Field); rate 0.0313 kg/ha",1.0
same,Preemergence herbicidal rating ZEAMX,"ZEAMX (Corn, Field); rate 0.0625 kg/ha",0.0
same,Preemergence herbicidal rating ZEAMX,"ZEAMX (Corn, Field); rate 0.1250 kg/ha",0.0
same,Preemergence herbicidal rating ZEAMX,"ZEAMX (Corn, Field); rate 0.2500 kg/ha",1.0
same,CYPIR herbicidal effect rating,CYPIR (Rice Flatsedge); 0.0313 kg/ha,3.0
same,CYPIR herbicidal effect rating,CYPIR (Rice Flatsedge); 0.0625 kg/ha,5.0
same,CYPIR herbicidal effect rating,CYPIR (Rice Flatsedge); 0.1250 kg/ha,5.0
same,CYPIR herbicidal effect rating,CYPIR (Rice Flatsedge); 0.2500 kg/ha,6.0
same,CYPSE herbicidal effect rating,CYPSE (Flatsedge); 0.0313 kg/ha,0.0
same,CYPSE herbicidal effect rating,CYPSE (Flatsedge); 0.0625 kg/ha,0.0
same,CYPSE herbicidal effect rating,CYPSE (Flatsedge); 0.1250 kg/ha,0.0
same,CYPSE herbicidal effect rating,CYPSE (Flatsedge); 0.2500 kg/ha,0.0
same,MOOVA herbicidal effect rating,MOOVA (Monochoria); 0.0313 kg/ha,9.0
same,MOOVA herbicidal effect rating,MOOVA (Monochoria); 0.0625 kg/ha,9.0
same,MOOVA herbicidal effect rating,MOOVA (Monochoria); 0.1250 kg/ha,9.0
same,MOOVA herbicidal effect rating,MOOVA (Monochoria); 0.2500 kg/ha,9.0
same,ORYSAT herbicidal effect rating (rice tolerance),"ORYSAT (Rice, Tebonnet) [8]",0.0
